Reference: patent US20230131899A1, “INHIBITORS OF MICROBIALLY INDUCED AMYLOID” (Axial Therapeutics, Inc., priority 2020, published 2023)
Where two headings read alike, the source gives them in different places.

How the values were obtained:
E. coli CsgA = biological target: T1, E. coli CsgA (Escherichia coli, UniProt P28307); experiment: In vitro ThioflavinT assay of CsgA aggregation (CsgA ThT Assay); assay type: biochemical; details: CsgA 2 μM, white plates; for remaining activity at 25 µM: compound 25 μM; for remaining activity at 100 µM: compound 100 μM
T1 construct: made in house; host or cells: E. coli NEB 3016 slyD::kan, pET11d
T1 sequence (P28307 23-151): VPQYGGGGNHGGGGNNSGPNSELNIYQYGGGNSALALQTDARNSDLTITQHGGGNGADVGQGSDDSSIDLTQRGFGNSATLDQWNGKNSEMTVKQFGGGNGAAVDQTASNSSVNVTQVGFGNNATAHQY
In short: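 Purified C-terminal His-tagged CsgA, monomerised by desalting and 30-kDa filtration, at 2-20 μM with 20-40 μM ThT in 50 mM potassium phosphate pH 7.3, 1% DMSO, compounds 3.125-200 uM; room temperature, fluorescence (ex 438/em 495 nm) read every 15 min. Background-subtracted signal expressed as percent inhibition versus vehicle at 6-6.5 or 8-9 h, or as percent control AUC.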

[1] = tested on: CsgA gene expression (csgBAC promoter-GFP reporter) in E. coli UTI89; experiment: In vitro live cell fluorescent reporter assay of CsgA transcription (Reporter Assay); assay type: cell-based; details: Escherichia coli
In short: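 Compounds at 0.14–100 μM (1% DMSO final) incubated 20 h at 27 °C in YESCA broth with UTI89 carrying a single-copy GFP reporter under the csgBAC intergenic promoter region, inoculum OD600 0.003. Fluorescence normalized to vehicle wells gave IC50 and 50%-of-vehicle concentration; OD600 reduction >10% flagged growth impact.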

[2] = read-out: CsgA ThT Assay (2 μM CsgA) % Control Bmax 25 μM, activity range, class symbol
[3] = read-out: CsgA ThT Assay (2 μM CsgA) % Control Bmax 25 μM, mean Bmax as percentage of DMSO control
[4] = read-out: CsgA ThT Assay (2 μM CsgA) % Control Bmax 100 μM, activity range, class symbol
[5] = read-out: CsgA ThT Assay (2 μM CsgA) % Control Bmax 100 μM, mean Bmax as percentage of DMSO control
[6] = read-out: Reporter Assay Abs IC50 (μM), median Abs IC50 in the CsgA reporter assay, N/A = maximum expression reduction is <50% of control
[7] = read-out: Reporter Assay Abs IC50, activity range, class symbol

| SMILES | remaining activity at 25 µM (E. coli CsgA; [2]) | remaining activity at 25 µM (E. coli CsgA; [3]) | remaining activity at 100 µM (E. coli CsgA; [4]) | remaining activity at 100 µM (E. coli CsgA; [5]) | IC50 [1, 6] | IC50 [1, 7] |
| --- | --- | --- | --- | --- | --- | --- |
| O=C(O)C1CN(Cc2ccccn2)c2c(-c3cccc(C(F)(F)F)c3)c(Cc3cccc4ccccc34)c(Cl)c(=O)n21 (stereo not shown) [Compound 166, 6-chloro-7-(naphthalen-1-ylmethyl)-5-oxo-1-(pyridin-2-ylmethyl)-8-(3-(trifluoromethyl)phenyl)-1,2,3,5-tetrahydroimidazo[1,2-a]pyridine-3-carboxylic acid] | > 60% | 72% | 31 to 60% | 40% | 2.5 µM | 1.3 to 4.5 µM |
| NC(=O)c1c(Cc2cccc3ccccc23)c(-c2cccc(C(F)(F)F)c2)c2n(c1=O)C(C(=O)O)CN(CCCCO)S2(=O)=O (stereo not shown) [Compound 183, 7-carbamoyl-2-(4-hydroxybutyl)-8-(naphthalen-1-ylmethyl)-6-oxo-9-(3-(trifluoromethyl)phenyl)-3,4-dihydro-2H,6H-pyrido[1,2-e][1,2,5]thiadiazine-4-carboxylic acid 1,1-dioxide] | 31 to 60% | 32% | 11 to 31% | 26% | 0.8 µM | < 1.3 µM |
| N#Cc1c(Cc2cccc3ccccc23)c(-c2cccc(C(F)(F)F)c2)c2n(c1=O)C(C(=O)O)CN2Cc1ccccc1 (stereo not shown) [Compound 185, 1-benzyl-6-cyano-7-(naphthalen-1-ylmethyl)-5-oxo-8-(3-(trifluoromethyl)phenyl)-1,2,3,5-tetrahydroimidazo[1,2-a]pyridine-3-carboxylic acid] | > 60% | 69% | > 60% | 91% | 1.8 µM | 1.3 to 4.5 µM |
| CN1CC(C(=O)O)n2c(c(-c3cccc(C(F)(F)F)c3)c(Cc3cccc4ccccc34)c(C(=O)N3CCCC3)c2=O)S1(=O)=O (stereo not shown) [Compound 186, 2-methyl-8-(naphthalen-1-ylmethyl)-6-oxo-7-(pyrrolidine-1-carbonyl)-9-(3-(trifluoromethyl)phenyl)-3,4-dihydro-2H,6H-pyrido[1,2-e] [1,2,5] thiadiazine-4-carboxylic acid 1,1-dioxide] | > 60% | 117% | > 60% | 72% | 4.7 µM | 4.6 to 10 µM |
| O=C(O)C1CN(Cc2ccccc2)c2c(-c3ccc(Br)cc3)c(Cc3cccc4ccccc34)c(Cl)c(=O)n21 (stereo not shown) [Compound 201, 1-benzyl-8-(4-bromophenyl)-6-chloro-7-(naphthalen-1-ylmethyl)-5-oxo-1,2,3,5-tetrahydroimidazo[1,2-a]pyridine-3-carboxylic acid] | > 60% | 70% | 31 to 60% | 35% | 1.8 µM | 1.3 to 4.5 µM |
| NC(=O)c1c(Cc2cccc3ccccc23)c(-c2cccc(C(F)(F)F)c2)c2n(c1=O)C(C(=O)O)CN2Cc1ccccc1 (stereo not shown) [Compound 203, 1-benzyl-6-carbamoyl-7-(naphthalen-1-ylmethyl)-5-oxo-8-(3-(trifluoromethyl)phenyl)-1,2,3,5-tetrahydroimidazo[1,2-a]pyridine-3-carboxylic acid] | > 60% | 62% | > 60% | 64% | 1.1 µM | < 1.3 µM |
| CN(C)Cc1c(Cc2cccc3ccccc23)c(-c2cccc(C(F)(F)F)c2)c2n(c1=O)C(C(=O)O)CN2Cc1ccccc1 (stereo not shown) [Compound 204, 1-benzyl-6-((dimethylamino)methyl)-7-(naphthalen-1-ylmethyl)-5-oxo-8-(3-(trifluoromethyl)phenyl)-1,2,3,5-tetrahydroimidazo[1,2-a]pyridine-3-carboxylic acid] |  |  | > 60% | 71% | 1.9 µM | 1.3 to 4.5 µM |
| O=C(O)C1CN(Cc2ccccc2)c2c(-c3cccc(C(F)(F)F)c3)c(Cc3cccc4ccncc34)c(Cl)c(=O)n21 (stereo not shown) [Compound 205, 1-benzyl-6-chloro-7-(isoquinolin-8-ylmethyl)-5-oxo-8-(3-(trifluoromethyl)phenyl)-1,2,3,5-tetrahydroimidazo[1,2-a]pyridine-3-carboxylic acid] | > 60% | 69% | 31 to 60% | 44% | 22.4 µM | > 10 µM |
| O=C(O)C1CN(Cc2ccccc2)c2c(-c3cccc(C(F)(F)F)c3)c(Cc3ccnc4ccccc34)c(Cl)c(=O)n21 (stereo not shown) [Compound 206, 1-benzyl-6-chloro-5-oxo-7-(quinolin-4-ylmethyl)-8-(3-(trifluoromethyl)phenyl)-1,2,3,5-tetrahydroimidazo[1,2-a]pyridine-3-carboxylic acid] | > 60% | 64% | 31 to 60% | 54% | 13.2 µM | > 10 µM |
| CC(C)(C)c1ccc(CN2CC(C(=O)O)n3c2c(-c2cccc(C(F)(F)F)c2)c(Cc2cccc4ccccc24)c(Cl)c3=O)cc1 (stereo not shown) [Compound 208, 1-(4-(tert-butyl)benzyl)-6-chloro-7-(naphthalen-1-ylmethyl)-5-oxo-8-(3-(trifluoromethyl)phenyl)-1,2,3,5-tetrahydroimidazo[1,2-a]pyridine-3-carboxylic acid] | 31 to 60% | 46% | 11 to 31% | 25% | 1 µM | < 1.3 µM |
| O=C(O)c1c(Cc2cccc3ccccc23)c(-c2cccc(C(F)(F)F)c2)c2n(c1=O)C(C(=O)O)CN2Cc1ccccc1 (stereo not shown) [Compound 209, 1-benzyl-7-(naphthalen-1-ylmethyl)-5-oxo-8-(3-(trifluoromethyl)phenyl)-1,2,3,5-tetrahydroimidazo[1,2-a]pyridine-3,6-dicarboxylic acid] | > 60% | 81% | > 60% | 64% | 6.6 µM | 4.6 to 10 µM |
| O=C(O)C1CN(Cc2ccccc2)c2c(-c3cccc(C(F)(F)F)c3)c(Cc3cncc4ccccc34)c(Cl)c(=O)n21 (stereo not shown) [Compound 210, 1-benzyl-6-chloro-7-(isoquinolin-4-ylmethyl)-5-oxo-8-(3-(trifluoromethyl)phenyl)-1,2,3,5-tetrahydroimidazo[1,2-a]pyridine-3-carboxylic acid] | > 60% | 79% | > 60% | 61% | 2.5 µM | 1.3 to 4.5 µM |
| O=C(O)C1CN(Cc2ccccc2)c2c(-c3cccc(C(F)(F)F)c3)c(Cc3cccc4ncccc34)c(Cl)c(=O)n21 (stereo not shown) [Compound 211, 1-benzyl-6-chloro-5-oxo-7-(quinolin-5-ylmethyl)-8-(3-(trifluoromethyl)phenyl)-1,2,3,5-tetrahydroimidazo[1,2-a]pyridine-3-carboxylic acid] | > 60% | 85% | > 60% | 65% | 20.6 µM | > 10 µM |
| O=C(O)C1CN(Cc2ccccc2)c2c(-c3cccc(C(F)(F)F)c3)c(Cc3cccc4cnccc34)c(Cl)c(=O)n21 (stereo not shown) [Compound 212, 1-benzyl-6-chloro-7-(isoquinolin-5-ylmethyl)-5-oxo-8-(3-(trifluoromethyl)phenyl)-1,2,3,5-tetrahydroimidazo[1,2-a]pyridine-3-carboxylic acid] | > 60% | 64% | 31 to 60% | 56% | 13 µM | > 10 µM |
| O=C(O)C1CN(Cc2ccccc2)c2c(-c3cccc(C(F)(F)F)c3)c(Cc3cccc4cccnc34)c(Cl)c(=O)n21 (stereo not shown) [Compound 213, 1-benzyl-6-chloro-5-oxo-7-(quinolin-8-ylmethyl)-8-(3-(trifluoromethyl)phenyl)-1,2,3,5-tetrahydroimidazo[1,2-a]pyridine-3-carboxylic acid] | > 60% | 72% | 31 to 60% | 44% | 9.1 µM | 4.6 to 10 µM |
| O=C(O)C1CN(Cc2ccccc2)c2c(-c3cccc(C(F)(F)F)c3)c(Cc3ccccc3)c(Cl)c(=O)n21 (stereo not shown) [Compound 214, 1,7-dibenzyl-6-chloro-5-oxo-8-(3-(trifluoromethyl)phenyl)-1,2,3,5-tetrahydroimidazo[1,2-a]pyridine-3-carboxylic acid] | > 60% | 90% | > 60% | 84% | 1.8 µM | 1.3 to 4.5 µM |
